{
  "source": "paper PMC11428291",
  "about": "“Peptide and Protein Cysteine Modification Enabled by Hydrosulfuration of Ynamide” (ACS Central Science, 2024)",
  "key": {"[1]": {"test": "Water solubility of ynamides (qualitative)", "assay_type": "physicochemical", "conditions": "qualitative statement", "protocol": "To this end, N-methylynetoluenesulfonamide (MYTsA, 2a), the first-generation ynamide coupling reagent for peptide synthesis,[39] was tested in our model reaction as a reference. […] Further optimization was performed to implement this chemistry under biocompatible conditions, such as aqueous media, near-neutral pH (6–8), and physiological temperature. In parallel, the poor water-solubility of 2a led to a sluggish reaction in an MeCN/phosphate buffer mixture (pH 8, 3:7), giving 3aa in 80% yield over 24 h. Enhancing the solubility by replacing the methyl group of R^2 with a 2-hydroxyethyl group (2b) led to a more efficient reaction, with an 89% yield of 3ab. […] Substituting the p-toluenesulfonyl (Ts) group of 2a with a trifluoromethylsulfonyl (triflyl, Tf, 2e) group enhanced both the solubility in water and the reaction efficiency due to its stronger electron-withdrawing ability and increased hydrophilicity. This modification facilitated the reaction to completion within 20 min in phosphate buffer with minimal MeCN (5%), yielding the product (3ae) as a single Z-isomer in 95% yield, confirmed by NMR (Z:E > 99:1; see zoom-in ^1H NMR spectra in Figure 2b and details in SI). […] This underscores the versatility of ynamide functionalization via R^2 group modification, promising broad applicability in synthesizing diverse conjugates. […]"}, "[2]": {"assay_type": "physicochemical", "conditions": "conjugate 10 μM, 10 mM H2O2 in buffer, pH 4, 8 and 10, 37 °C, 24 h (Figure S59)", "from_the_text": "(§1) The stability of the conjugated products is of the utmost importance for developing a powerful peptide and protein modification strategy.[6] […] Moreover, the cleavage of 3ae in the presence of external thiol to regenerate the unmodified 1a, which occurred in other methods,[16b],[33a] was not detected in our hands (using 2-mercaptoethanol, Figure S58). In contrast, the iodoacetamide (IAM) peptide conjugate decomposed under the aforementioned conditions (Figures S61–S63).\n(§2) Figure S58.Stability of 3ae ( 1mM) in the presence of external thiol\n(§3) 4) Stability of 3ae (10 μM) when treated with large excess ((10mM H2O2 in buffer) of\nFigure S59.Stability of 3ae ( 10μM) when tr eated with large excess of H 2O2 (at pH 4, […]\n7) Stability of iodoacetamide labelling product (10 μM) when treated with large\nexcess ((10mM H2O2 in buffer)of H 2O2 (at pH 2 and 13 at 37 °C) for 24 h\nFigure S62.Stability of iodoacetamide labelling product (10 μM) when treated with\nlarge excess of H2O2 (at pH 2 and 13at 37 °C)\n8) Stability of iodoacetamide labelling product (10 μM) when treated with bovine\nFigure S63.Stability of iodoacetamide labelling product (10 μM) when treated with […]"}, "[3]": {"test": "Stability of peptide conjugate in the presence of external thiol (2-mercaptoethanol)", "assay_type": "physicochemical", "conditions": "conjugate 1 mM, pH 8.0 (Figure S58)", "from_the_text": "as §1\n7. Stability Study and Reaction Rate study of the Peptide Conjugates\n1) Stability study of the peptide conjugate 3ae\nFigure S56.Stability study of the peptide conjugate 3ae\n2) Stability of 3ae (1 mM) in buffers at pH 2.0, pH 8.0, pH 10.0, pH 13.0 at 37 °C for\nFigure S57.Stability of 3ae ( 1mM) in buffers at pH 2.0, pH 8.0,pH 10.0,pH 13.0\n3) Stability of 3ae (1 mM) in the presence of external thiol ( 2- mercaptoethanol)，pH […]\nas §2, §3\nFigure S59.Stability of 3ae ( 10μM) when tr eated with large excess of H 2O2 (at pH 4,"}, "[4]": {"test": "Reaction rate study: hydrosulfuration of glutathione (GSH) to ynamide", "conditions": "pseudo-first order, ynamide 0.25 mM, GSH 2.5, 5 and 10 mM, 5% MeCN, pH 8.0, 0.2 M PBS, 37 °C, UV-Visible absorbance at 244 nm, triplicate", "protocol": "In line with our proposal, the conjugation of the optimal ynamide (2e) and peptide (1a) was sensitive to pH and was sluggish under neutral conditions (pH 6–7.5, Figure S14). […] To further dissect the reaction mechanism, the reaction was carried out in the presence of different types of radical scavengers; no negative effect on the reaction efficacy was observed. In addition, the thiyl radical chemistry of ynamide was examined in aqueous medium, but no reaction was detected (see the SI for details, Schemes S15–S16).\n9) Reaction Rate study of the Peptide Conjugates\nHO N N OH PBS, pH = 8.0, MeCN, 37 °CHONN OH\nFigure S64.Reaction Rate study of the Peptide Conjugates\nThe reaction between Ynamide (2e) and glutathione (GSH) was measured under pseudo- first order conditions with 10, 20 and 40 equivalents of GSH by real-time monitor of conjugate reactio n using UV-Visible absorbance at 244 nm (max absorbance wavelength for 3me). Solutions were prepared in MeCN (5%), pH 8.0, 0.2 M PBS with Ynamide (0.25 mM) and GSH (2.5 mM, 5 mM and 10 mM). Data was recorded for 2-5 min and performed in triplicate at 37 ℃. The averages of the observed rates (kobs), determined by nonlinear regression analysis of the data points were plotted against the concentration of GSH and the bimolecular rate constant k2, […]\n8. Trastuzumab R eduction […]"}},
  "data": [
    {"smiles": "C#CN(C)S(=O)(=O)c1ccc(C)cc1", "note": "[2a, N-methylynetoluenesulfonamide]", "values": [
      {"measurement": "Water-solubility", "setting": "[1]", "result": "poor"}
    ]},
    {"smiles": "CCOC(=O)[C@H](CS/C=C\\N(CCO)S(=O)(=O)C(F)(F)F)NC(=O)[C@H](C)NC(=O)OC(C)(C)C", "note": "[3ae]", "values": [
      {"measurement": "β-syn elimination when treated with a large excess of H2O2", "setting": "[2]", "result": "did not undergo β-syn elimination"},
      {"measurement": "Cleavage in the presence of external thiol to regenerate the unmodified 1a", "setting": "[3]", "result": "not detected"}
    ]},
    {"smiles": "C#CN(CCO)S(=O)(=O)C(F)(F)F", "note": "[2e]", "values": [
      {"measurement": "Solubility in water relative to 2a", "setting": "[1]; compared with 2a", "result": "enhanced"},
      {"measurement": "Apparent second-order rate constant for the thiol conjugation (k2, app.)", "setting": "[4]", "result": "0.2399 ± 0.002", "unit": "M^–1 s^–1"}
    ]}
  ]
}
